# According to US12331044B2, “Inhibitors of histone deacetylase useful for the treatment or prevention of HIV infection” (Merck Sharp & Dohme LLC, priority 2018, dated 2025):
# Like-named read-outs stand apart in the source and are kept apart here.
# Columns and labels:
# human HDAC2 = human HDAC2 (Homo sapiens (Human), UniProt Q92769); experiment: HDAC2 inhibition assay (modified FLUOR DE LYS, 384-well); format: biochemical; conditions: […] enzyme, 40 μM substrate BML-KI104, 3 h pre-incubation; read-out: HDAC2 IC50
# human HDAC2, sequence (Q92769 whole entry): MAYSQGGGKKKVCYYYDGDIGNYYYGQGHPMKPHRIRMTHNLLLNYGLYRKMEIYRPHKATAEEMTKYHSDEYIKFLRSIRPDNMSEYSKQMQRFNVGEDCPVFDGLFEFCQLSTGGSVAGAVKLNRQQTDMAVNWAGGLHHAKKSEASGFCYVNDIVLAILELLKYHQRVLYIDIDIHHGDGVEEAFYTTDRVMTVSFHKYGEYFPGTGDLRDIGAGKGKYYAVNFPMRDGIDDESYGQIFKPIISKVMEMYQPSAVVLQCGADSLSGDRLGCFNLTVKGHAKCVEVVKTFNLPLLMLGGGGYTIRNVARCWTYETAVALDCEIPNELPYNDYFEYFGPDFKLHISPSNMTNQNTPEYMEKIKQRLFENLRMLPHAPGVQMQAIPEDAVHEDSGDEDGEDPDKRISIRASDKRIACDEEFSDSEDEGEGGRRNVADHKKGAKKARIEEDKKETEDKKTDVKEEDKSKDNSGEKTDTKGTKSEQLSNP
# human HDAC8 = human HDAC8 (Homo sapiens (Human), UniProt Q9BY41); experiment: HDAC8 inhibition assay (modified FLUOR DE LYS, 384-well); format: biochemical; conditions: […] enzyme, 200 μM substrate BML-KI178, 3 h pre-incubation; read-out: HDAC8 IC50
# human HDAC8, sequence (Q9BY41 whole entry): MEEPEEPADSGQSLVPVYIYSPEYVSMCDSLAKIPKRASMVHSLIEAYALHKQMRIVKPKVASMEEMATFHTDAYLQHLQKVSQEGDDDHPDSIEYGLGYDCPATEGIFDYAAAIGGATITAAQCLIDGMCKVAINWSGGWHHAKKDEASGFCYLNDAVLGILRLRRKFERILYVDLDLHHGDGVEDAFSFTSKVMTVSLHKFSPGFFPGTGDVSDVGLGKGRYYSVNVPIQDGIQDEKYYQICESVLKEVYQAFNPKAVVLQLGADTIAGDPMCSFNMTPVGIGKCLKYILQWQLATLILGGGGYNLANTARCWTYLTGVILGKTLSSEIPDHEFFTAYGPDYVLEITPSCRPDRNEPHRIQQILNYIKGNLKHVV
# human HDAC1 = human HDAC1 (Homo sapiens (Human), UniProt Q13547)
# human HDAC1, sequence (Q13547 whole entry): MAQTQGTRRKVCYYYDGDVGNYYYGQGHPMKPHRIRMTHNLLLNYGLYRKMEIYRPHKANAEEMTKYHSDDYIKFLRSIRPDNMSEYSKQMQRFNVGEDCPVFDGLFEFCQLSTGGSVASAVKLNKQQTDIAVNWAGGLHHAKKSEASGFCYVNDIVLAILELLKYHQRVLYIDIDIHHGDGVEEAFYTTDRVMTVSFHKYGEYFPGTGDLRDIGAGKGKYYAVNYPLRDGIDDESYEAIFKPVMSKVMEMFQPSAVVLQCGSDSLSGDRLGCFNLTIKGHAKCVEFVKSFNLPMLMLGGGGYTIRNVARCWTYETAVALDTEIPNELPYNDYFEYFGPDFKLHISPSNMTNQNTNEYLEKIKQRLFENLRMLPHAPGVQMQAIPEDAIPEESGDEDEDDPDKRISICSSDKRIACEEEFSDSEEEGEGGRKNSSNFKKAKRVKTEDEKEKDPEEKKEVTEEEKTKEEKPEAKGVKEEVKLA
# [1] = biological target: human HDAC3/SMRT heterodimer (Homo sapiens (Human), UniProt O15379)
# human HDAC3/SMRT heterodimer, sequence (O15379 whole entry): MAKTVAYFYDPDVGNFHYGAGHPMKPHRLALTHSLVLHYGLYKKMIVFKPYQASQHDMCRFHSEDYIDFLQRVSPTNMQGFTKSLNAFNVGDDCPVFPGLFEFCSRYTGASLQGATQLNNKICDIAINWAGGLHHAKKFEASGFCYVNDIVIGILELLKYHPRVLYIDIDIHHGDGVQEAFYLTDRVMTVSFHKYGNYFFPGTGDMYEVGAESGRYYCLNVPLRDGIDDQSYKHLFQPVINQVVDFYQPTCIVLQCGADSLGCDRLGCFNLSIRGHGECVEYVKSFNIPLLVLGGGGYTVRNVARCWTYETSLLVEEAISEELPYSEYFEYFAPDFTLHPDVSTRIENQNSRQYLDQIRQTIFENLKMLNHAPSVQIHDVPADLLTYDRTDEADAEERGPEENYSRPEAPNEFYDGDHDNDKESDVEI
# human HDAC3/SMRT heterodimer, sequence (Q9Y618 1-899 partner): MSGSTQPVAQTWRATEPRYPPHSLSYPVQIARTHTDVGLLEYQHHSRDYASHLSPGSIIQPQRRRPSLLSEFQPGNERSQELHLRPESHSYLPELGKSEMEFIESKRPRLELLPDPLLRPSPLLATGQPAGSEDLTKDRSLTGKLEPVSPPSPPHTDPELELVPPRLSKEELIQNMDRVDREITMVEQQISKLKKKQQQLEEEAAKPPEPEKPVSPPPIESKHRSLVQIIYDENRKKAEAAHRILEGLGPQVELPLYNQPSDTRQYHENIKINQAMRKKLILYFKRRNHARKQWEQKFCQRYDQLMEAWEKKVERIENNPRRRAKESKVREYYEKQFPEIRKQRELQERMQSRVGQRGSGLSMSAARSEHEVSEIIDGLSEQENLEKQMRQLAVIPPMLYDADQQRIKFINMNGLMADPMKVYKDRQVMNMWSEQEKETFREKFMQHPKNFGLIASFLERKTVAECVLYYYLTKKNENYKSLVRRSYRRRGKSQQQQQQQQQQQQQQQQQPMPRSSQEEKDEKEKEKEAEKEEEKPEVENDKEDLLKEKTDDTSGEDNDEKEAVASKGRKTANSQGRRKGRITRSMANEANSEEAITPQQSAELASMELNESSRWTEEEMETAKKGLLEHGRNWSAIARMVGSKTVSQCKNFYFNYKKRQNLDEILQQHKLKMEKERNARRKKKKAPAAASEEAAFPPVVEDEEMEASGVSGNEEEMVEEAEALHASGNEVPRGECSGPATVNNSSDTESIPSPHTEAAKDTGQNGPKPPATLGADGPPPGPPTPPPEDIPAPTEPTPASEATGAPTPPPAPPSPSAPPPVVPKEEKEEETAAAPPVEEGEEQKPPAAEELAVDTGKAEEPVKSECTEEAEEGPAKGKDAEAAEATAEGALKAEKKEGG
# HDAC6 = HDAC6 (Homo sapiens (Human), UniProt Q9UBN7)
# HDAC6, sequence (Q9UBN7 whole entry): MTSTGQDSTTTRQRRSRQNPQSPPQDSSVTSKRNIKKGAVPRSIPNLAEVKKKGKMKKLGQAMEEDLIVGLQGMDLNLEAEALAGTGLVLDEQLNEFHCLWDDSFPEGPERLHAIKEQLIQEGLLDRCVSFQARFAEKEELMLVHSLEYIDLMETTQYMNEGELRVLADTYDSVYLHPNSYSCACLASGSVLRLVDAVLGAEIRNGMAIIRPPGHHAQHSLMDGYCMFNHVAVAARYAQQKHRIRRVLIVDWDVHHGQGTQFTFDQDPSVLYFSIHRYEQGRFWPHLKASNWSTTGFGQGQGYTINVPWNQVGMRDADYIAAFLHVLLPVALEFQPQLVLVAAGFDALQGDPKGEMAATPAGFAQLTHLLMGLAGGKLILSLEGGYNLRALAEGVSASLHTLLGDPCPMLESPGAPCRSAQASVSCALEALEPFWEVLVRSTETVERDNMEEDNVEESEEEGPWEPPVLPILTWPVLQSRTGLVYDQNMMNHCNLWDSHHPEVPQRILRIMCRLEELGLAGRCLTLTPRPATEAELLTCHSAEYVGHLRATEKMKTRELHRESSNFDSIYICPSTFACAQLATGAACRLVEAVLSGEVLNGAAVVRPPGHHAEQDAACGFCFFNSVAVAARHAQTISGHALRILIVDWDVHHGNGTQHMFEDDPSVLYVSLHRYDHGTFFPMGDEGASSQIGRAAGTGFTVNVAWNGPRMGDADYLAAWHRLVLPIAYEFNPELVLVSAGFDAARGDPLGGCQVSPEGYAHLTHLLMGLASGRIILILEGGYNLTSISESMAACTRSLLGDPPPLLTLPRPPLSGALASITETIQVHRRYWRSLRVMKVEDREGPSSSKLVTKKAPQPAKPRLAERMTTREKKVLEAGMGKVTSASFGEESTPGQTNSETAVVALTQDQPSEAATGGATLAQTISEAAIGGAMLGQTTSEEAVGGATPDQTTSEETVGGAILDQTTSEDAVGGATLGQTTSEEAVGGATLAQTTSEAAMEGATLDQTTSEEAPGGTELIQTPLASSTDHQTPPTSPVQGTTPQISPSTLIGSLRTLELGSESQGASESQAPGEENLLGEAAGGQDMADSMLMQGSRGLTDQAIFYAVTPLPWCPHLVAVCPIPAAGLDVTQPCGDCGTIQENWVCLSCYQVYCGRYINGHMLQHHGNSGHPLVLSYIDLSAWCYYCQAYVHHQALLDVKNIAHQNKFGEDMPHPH
# Description: The histone deacetylase activities of HDAC1, HDAC2, HDAC3, HDAC6, and HDAC8 were measured in modified FLUOR DE LYS assays in 384-well format. In this assay, HDAC enzymes are initially incubated with an F-acetyl (or -trifluoroacetyl)-L-lysine-containing substrate with a C-terminal amide having aminomethylcoumarin as the amine component. HDACs cleave the F-acetyl group, rendering the resulting product susceptible to AMC cleavage by trypsin. The released AMC is then detected by its fluorescence. […] All steps were performed at room temperature (23° C.). The assay was performed by pre-incubating serial dilutions of test compounds with the target HDAC prior to initiation with substrate. […] Final conditions used for each assay were: 1. […] The reactions were stopped and developed by addition of 30 ul of HDAC developer solution containing a saturating level of HDAC inhibitor as follows: 1. […] For data analysis, background subtracted product (fluorescence) vs. time data for each inhibitor concentration was fitted using a 4-parameter fit.
# KARN cells (Jurkat 2C4) = experiment: cells; conditions: Homo sapiens
# [2] = read-out: Karn EC50 nM 0.1% NHS, 0.1% normal human serum, luciferase induction, 2 μM SAHA = 100%
# [3] = read-out: Karn EC50 nM 5% NHS, 5% normal human serum, luciferase induction, 2 μM SAHA = 100%
SMILES,IC50 (human HDAC2),IC50 (human HDAC8),IC50 (human HDAC1),IC50 [1],IC50 (HDAC6),EC50 (KARN cells (Jurkat 2C4); [2]),EC50 (KARN cells (Jurkat 2C4); [3])
COc1cc2nc(C)ccc2cc1-c1cnc([C@H](CCCCCC(=O)c2cc(C)on2)NC(=O)C2CN(C)C2)[nH]1 [Example 57],1 nM,150 nM,0.23 nM,0.24 nM,45000 nM,5.5 nM,13 nM
"COc1cc2nc(C)ccc2cc1-c1cnc([C@H](CCCCCC(=O)c2ncco2)NC(=O)C2COc3ccccc3O2)[nH]1 (stereo partly drawn) [Example 171, N-[(1S)-1-[5-(7-methoxy-2-methylquinolin-6-yl)-1H-imidazol-2-yl]-7-(1,3-oxazol-2-yl)-7-oxoheptyl]-2,3-dihydro-1,4-benzodioxine-2-carboxamide]",56 nM,340 nM,11 nM,4 nM,> 900 nM,180 nM,470 nM
CN1CCC2(CC1)C[C@@H]2C(=O)N[C@@H](CCCCCC(=O)c1ccon1)c1nc(-c2ccccc2F)c[nH]1 [Example 39],0.57 nM,2 nM,0.1 nM,0.13 nM,45000 nM,3 nM,4 nM
"COc1cc(O[C@H]2C[C@H](OC)C2)cc(-c2cnc([C@@H](N)CCCCCC(=O)c3ncco3)[nH]2)c1F [Example 144, (7S)-7-amino-7-(5-{2-fluoro-3-methoxy-5-[(trans-3-methoxycyclobutyl)oxy]phenyl}-1H-imidazol-2-yl)-1-(1,3-oxazol-2-yl)heptan-1-one]",39 nM,210 nM,7 nM,6.4 nM,> 900 nM,650 nM,870 nM
COc1nc2ccccc2cc1-c1c[nH]c([C@@H](N)CCCCCC(=O)c2ncco2)n1 [Example 15],18 nM,720 nM,5.2 nM,7.3 nM,40000 nM,180 nM,670 nM
COc1cc2nc(C)ccc2cc1-c1cnc([C@H](CCCCCC(=O)c2cc(C)on2)NC(=O)CN(C)C)[nH]1 [Example 56],1.8 nM,310 nM,0.4 nM,0.37 nM,45000 nM,6.4 nM,11 nM
CN(C)C1(C(=O)N[C@@H](CCCCCC(=O)c2ccon2)c2ncc(-c3ccccc3F)[nH]2)CCC1 [Example 63],2.1 nM,3.8 nM,0.54 nM,0.46 nM,> 900 nM,11 nM,32 nM
COc1cc2c(ccc(=O)n2C)cc1-c1cnc([C@@H](N)CCCCCC(=O)c2ncco2)[nH]1 [Example 21],8.4 nM,490 nM,1.9 nM,1.5 nM,> 4500 nM,110 nM,110 nM
"CN1CCC2(CC1)C[C@@H]2C(=O)N[C@@H](CCCCCC(=O)c1ncco1)c1[nH]c(-c2ccc(F)cc2)nc1C#N [Example 187, (S)-N-((S)-1-(4-cyano-2-(4-fluorophenyl)-1H-imidazol-5-yl)-7-(oxazol-2-yl)-7-oxoheptyl)-6-methyl-6-azaspiro[2.5]octane-1-carboxamide]",0.83 nM,170 nM,0.16 nM,0.16 nM,45000 nM,20 nM,25 nM
"COc1cc2nc(C)ccc2cc1-c1cnc([C@H](CCCCCC(=O)c2ncco2)NC(=O)c2cc3n(n2)CCCO3)[nH]1 [Example 163, N-[(1S)-1-[5-(7-methoxy-2-methylquinolin-6-yl)-1H-imidazol-2-yl]-7-(1,3-oxazol-2-yl)-7-oxoheptyl]-6,7-dihydro-5H-pyrazolo[5,1-b][1,3]oxazine-2-carboxamide]",8.4 nM,38 nM,1.6 nM,0.53 nM,> 900 nM,84 nM,210 nM
"N[C@@H](CCCCCC(=O)c1ncco1)c1ncc(-c2cccc(C(F)(F)F)c2F)[nH]1 [Example 138, (7S)-7-amino-7-{5-[2-fluoro-3-(trifluoromethyl)phenyl]-1H-imidazol-2-yl}-1-(1,3-oxazol-2-yl)heptan-1-one]",37 nM,250 nM,4.3 nM,3.9 nM,> 900 nM,2200 nM,3400 nM
"COc1cc2nc(C)ccc2cc1-c1cnc([C@H](CCCCCC(=O)c2ncco2)NC(=O)C2CCCO2)[nH]1 (stereo partly drawn) [Example 169, N-[(1S)-1-[5-(7-methoxy-2-methylquinolin-6-yl)-1H-imidazol-2-yl]-7-(1,3-oxazol-2-yl)-7-oxoheptyl]tetrahydrofuran-2-carboxamide]",15 nM,180 nM,3.4 nM,1.2 nM,> 900 nM,99 nM,270 nM
COc1nc2ccccc2cc1-c1cnc([C@H](CCCCCC(=O)c2ncco2)NC(=O)c2cncs2)[nH]1 [Example 42],5.4 nM,27 nM,1.7 nM,1.5 nM,13000 nM,52 nM,340 nM
"COc1cc2nc(C)ccc2cc1-c1cnc([C@H](CCCCCC(=O)c2ncco2)NC(=O)Cn2cccc2)[nH]1 [Example 162, N-[(1S)-1-[5-(7-methoxy-2-methylquinolin-6-yl)-1H-imidazol-2-yl]-7-(1,3-oxazol-2-yl)-7-oxoheptyl]-2-(1H-pyrrol-1-yl)acetamide]",24 nM,300 nM,4.2 nM,1.5 nM,> 900 nM,650 nM,1200 nM
COc1nc2ccccc2cc1-c1cnc([C@H](CCCCCC(=O)c2ncco2)NC(=O)CN(C)C)[nH]1 [Example 41],2.6 nM,65 nM,0.39 nM,0.71 nM,3300 nM,16 nM,140 nM
N[C@@H](CCCCCC(=O)c1ncco1)c1ncc(-c2ccc3nc(N4CCCC4)ccc3c2)[nH]1 [Example 19],9.4 nM,3600 nM,2 nM,1.5 nM,> 1500 nM,210 nM,420 nM
"COc1nc2ccccc2cc1-c1cnc([C@H](CCCCCC(=O)c2ncco2)NC(=O)c2ccncn2)[nH]1 [Example 149, N-[(1S)-1-[5-(2-methoxyquinolin-3-yl)-1H-imidazol-2-yl]-7-(1,3-oxazol-2-yl)-7-oxoheptyl]pyrimidine-4-carboxamide]",6.6 nM,140 nM,1.7 nM,1.5 nM,21000 nM,69 nM,360 nM
CN(C)CC(=O)N[C@@H](CCCCCC(=O)c1ncco1)c1ncc(-c2ccc3c(ccc(=O)n3C)c2)[nH]1 [Example 46],9.6 nM,91 nM,1.7 nM,1.5 nM,45000 nM,31 nM,44 nM
"COc1cc2nc(C)ccc2cc1-c1cnc([C@H](CCCCCC(=O)c2ccon2)NC(=O)C2CN(C)C2)[nH]1 [Example 103, (S)-N-(7-(isoxazol-3-yl)-1-(5-(7-methoxy-2-methylquinolin-6-yl)-1H-imidazol-2-yl)-7-oxoheptyl)-1-methylazetidine-3-carboxamide]",0.44 nM,3 nM,0.13 nM,0.18 nM,> 900 nM,6 nM,8.3 nM
"CS(=O)(=O)c1ccc(-c2cnc([C@@H](N)CCCCCC(=O)c3ncco3)[nH]2)c(F)c1 [Example 143, (7S)-7-amino-7-{5-[2-fluoro-4-(methylsulfonyl)phenyl]-1H-imidazol-2-yl}-1-(1,3-oxazol-2-yl)heptan-1-one]",35 nM,> 900 nM,7.2 nM,7.9 nM,> 900 nM,1200 nM,1600 nM
"COc1cc2nc(C)ccc2cc1-c1cnc([C@H](CCCCCC(=O)c2ncco2)NC(=O)CN2CCOCC2=O)[nH]1 [Example 158, N-[(1S)-1-[5-(7-methoxy-2-methylquinolin-6-yl)-1H-imidazol-2-yl]-7-(1,3-oxazol-2-yl)-7-oxoheptyl]-2-(3-oxomorpholin-4-yl)acetamide]",5.6 nM,48 nM,1.1 nM,1.5 nM,590 nM,210 nM,210 nM
"Cn1cc2cc(-n3ccc([C@@H](N)CCCCCC(=O)c4ncco4)n3)ccc2n1 [Example 128, (7S)-7-amino-7-[1-(2-methyl-2H-indazol-5-yl)-1H-pyrazol-3-yl]-1-(1,3-oxazol-2-yl)heptan-1-one]",55 nM,4300 nM,8 nM,10 nM,45000 nM,1200 nM,1500 nM
"N[C@@H](CCCCCC(=O)c1ncco1)c1ncc(-c2cccc(F)c2F)[nH]1 [Example 136, (7S)-7-amino-7-[5-(2,3-difluorophenyl)-1H-imidazol-2-yl]-1-(1,3-oxazol-2-yl)heptan-1-one]",380 nM,> 900 nM,110 nM,100 nM,> 900 nM,–,–
"N[C@@H](CCCCCC(=O)c1ncco1)c1ncc(-c2cc(C(F)(F)F)ccc2F)[nH]1 [Example 137, (7S)-7-amino-7-{5-[2-fluoro-5-(trifluoromethyl)phenyl]-1H-imidazol-2-yl}-1-(1,3-oxazol-2-yl)heptan-1-one]",240 nM,> 900 nM,61 nM,45 nM,> 900 nM,–,–
